Assay [1] in a line: The ability of compound to inhibit [35S][…] binding in guinea pig caudate stimulated by SNC80 (Opioid receptor delta 1) antagonist.
Assay [2] in a line: The ability of compound to inhibit [35S][…] binding in guinea pig caudate stimulated by SNC80.

The source of these data is BindingDB's records for doi:10.1021/jm020940p (University of Innsbruck, 2002).

For `CCO[C@@]12Cc3c(oc4ccccc34)[C@@H]3Oc4c(O)ccc5c4[C@@]31CCN(CC1CC1)[C@@H]2C5`, in assay [1], the Ki is 0.88 nM.
In turn, `C=CCN1CC[C@]23c4c5ccc(O)c4O[C@H]2c2[nH]c4ccccc4c2C[C@@]3(OCC)[C@H]1C5` gave a Ki in assay [2] of 1 nM.
`CCO[C@@]12Cc3c([nH]c4ccccc34)[C@]3(C)Oc4c(O)ccc5c4C31CCN(CC1CC1)C2C5` (stereo partly drawn) [22-cyclopropylmethyl-2-ethoxy-13-methyl-(2S,13R)-14-oxa-11,22-diazaheptacyclo[13.9.1.01,13.02,21.04,12.05,10.019,25]pentacosa-4(12),5(10),6,8,15,17,19(25)-heptaen-16-ol] came in with a Ki in assay [1] of 0.96 nM.

As a reminder, the Ki is the dissociation constant of the complex between target and ligand, obtained from inhibition or displacement. Low readings indicate tighter binding, high ones weaker binding.
